The nature of this data set: solvent given as SMILES.

“And” between values parts separate entries of the source, which are not always exact repeats. Equal values may be shown once.

As for `N#Cc1cc2ccc(O)cc2oc1=N`, the absorption maximum (in C1CCOC1) turned out to be 360 nm; the absorption maximum (in CC#N) came out at 356 nm; the absorption maximum (in CCOC(C)=O) was 362 nm; the absorption maximum (in CS(C)=O) stood at 355 nm; the absorption maximum (in ClC(Cl)Cl) was determined as 364 nm.
In turn, `CCOC(=O)CSc1nc2c(c(C#N)c1C#N)CCCCCC2` had an absorption maximum (in c1ccccc1) of 360 nm.
Still for that read-out and setting: as for `CN(C)c1ccc2ccc3oc(=O)c(-c4ccccc4)nc3c2c1`, the figure is 474 nm.
Where the note is “in CO”, `N#Cc1c(-n2nnc3ccccc32)n([C@H]2C[C@H](O)[C@@H](CO)O2)c2ncnc(N)c12` yielded an absorption maximum of 278 nm.
`N#CC(C#N)=C(/C=C/c1ccc(N(c2ccccc2)c2ccccc2)cc1)c1ccc2c3c(cccc13)CC2`: the absorption maximum (in C1CCOC1) was 485 nm; the absorption maximum (in CC#N) came to 486 nm; the absorption maximum (in CC(C)=O) turned out to be 485 nm; the absorption maximum (in CCOC(C)=O) is listed as 482 nm; the absorption maximum (in CN(C)C=O) is on record as 493 nm; the absorption maximum (in CO) is on record as 490 nm. Besides, the absorption maximum runs as follows: (in Cc1ccccc1) 493 nm; (in ClC(Cl)Cl) 502 nm.
Under “in CCCCCC”, `CCNCC` came in with an absorption maximum of 193 nm.
With `Cc1cc(=O)oc2c1cc(Br)c1occ(C)c12`, the absorption maximum is, setting by setting: (in C1CCCCC1) 333 nm; (in CCO) 330 nm.
Take `C[Si]1(C)c2ccc(C#Cc3ccccc3)cc2C=Cc2cc(C#Cc3ccccc3)ccc21`: the absorption maximum (in ClCCl) was determined as 346 nm.
Regarding `F[Si](c1ccccc1)(c1ccccc1)c1c2ccccc2cc2ccccc12`, the absorption maximum (in C1CCOC1) is 393 nm and the absorption maximum (in ClC(Cl)Cl) was 394 nm.
In turn, `CC(C)[Si](C#Cc1ccc(C#C[Si](C(C)C)(C(C)C)C(C)C)c2nc3c(ccc4ccccc43)nc12)(C(C)C)C(C)C` gave an absorption maximum (in CCCCCC) of 411 nm.
`CC(C)(C)C#Cc1ccc2c3cccc4cccc(c5cccc1c52)c43` returned an absorption maximum (in C1CCCCC1) of 455 nm.
For `COc1ccc2c3ccc(OC)cc3c3cc4c(C)cc(=O)oc4cc3c2c1`, under “in ClC(Cl)Cl”, the absorption maximum was 365 nm.
In turn, `CN(C)c1ccc(C2=C(c3ccccc3)c3sc4ccccc4[n+]3[B-](F)(F)O2)cc1` came in with an absorption maximum (in C1CCOC1) of 446 nm.
The compound `O=P1(c2ccccc2)c2ccc(N3c4ccccc4Sc4ccccc43)cc2-c2cc(N3c4ccccc4Sc4ccccc43)ccc21` came in with an absorption maximum (in Cc1ccccc1) of 422 nm.
`CCCCc1cc(-c2cccc(COC)c2)oc1-c1cccc(-c2cc(CCCC)c(-c3cccc(-c4cc(CCCC)c(-c5cccc(-c6oc(-c7cccc(-c8oc(-c9cccc(-c%10oc(-c%11cccc(COC)c%11)cc%10CCCC)c9)cc8CCCC)c7)cc6CCCC)c5)o4)c3)o2)c1`: the absorption maximum (in ClC(Cl)Cl) was 337 nm.
In the case of `COc1cc(/C=C2/SC(=O)NC2=O)ccc1O`, the absorption maximum was 348 nm (in C1CCCCC1); 358 nm (in C1COCCO1); 354 nm (in CC#N); 340 nm (in CN(C)C=O); 355 nm (in CO); 355 nm (in O). Also, the absorption maximum runs as follows: (in OCC(O)CO) 367 nm; (in OCCO) 361 nm.
Turning to `COc1ccc2c3c(c4ccc(OC)cc4c2c1)C(C)(C)c1sccc1-3`, the absorption maximum (in C1CCCCC1) amounted to 391 nm.
On to `CCCCN1C(=O)C2=C(c3ccc(-c4ccc5c(c4)C(C)(C)c4ccccc4-5)cc3)NC(=O)C2=C1c1ccc(-c2ccc3c(c2)C(C)(C)c2ccccc2-3)cc1`, for which the absorption maximum (in ClCCl) is given as 497 nm.
`CC(=O)Nc1ccc(C2=C/C(=C\c3ccc([N+](=O)[O-])cc3)C(=O)O2)cc1` displayed an absorption maximum (in C1COCCO1) of 438 nm.
Under “in ClC(Cl)Cl”, `CCCCCCCCn1c(=O)c2cc3cc4cc5c(=O)n(CCCCCCCC)c(=O)c5cc4cc3cc2c1=O` yielded an absorption maximum of 421 nm.
Turning to `O=c1c2cc(F)c(N3CCOCC3)cc2sc2cc(N3CCOCC3)c(F)cc12`, for the setting “in CCO”, the absorption maximum was 361 nm.
`Cc1nnc(-c2ccc(-n3c4ccccc4c4ccccc43)cc2)o1` returned an absorption maximum (in Cc1ccccc1) of 340 nm.
As to `C(=C/c1ccc(N(c2ccccc2)c2ccccc2)cc1)/c1ccc(N(c2ccccc2)c2ccccc2)cc1`, for the setting “in ClCCl”, the absorption maximum was 370 nm.
`Cc1cc(=O)cc(-c2ccc(-c3nc4ccccn4c3NC3CCCCC3)cc2)o1` registered an absorption maximum (in ClCCl) of 357 nm.
In the case of `CC(C)[Si](C#Cc1ccc(C#C[Si](C(C)C)(C(C)C)C(C)C)c2nc3ccccc3nc12)(C(C)C)C(C)C`, the absorption maximum is, setting by setting: (in CCCCCC) 440 nm; (in ClCCl) 439 nm.
For the compound `CC[N+]1(CC)CN2C(C)=CC(C)=C(C(=O)[O-])C2=N1`, the absorption maximum was determined as 361 nm (in CN(C)C=O) and 338 nm (in O).
Turning to `c1ccc(-c2cc(-c3ccc(N4c5ccccc5C(c5ccccc5)(c5ccccc5)c5ccccc54)cc3)nc(-c3ccccc3)n2)cc1`, the absorption maximum (in Cc1ccccc1) came out at 368.88 nm.
On to `c1ccc(-c2nc3c(c4c2-c2ccccc2CC4)-c2ccccc2CC3)cc1`, for which the absorption maximum is on record as 314 nm (in C1CCOC1); 308 nm (in CC#N); 309 nm (in CCCCCC); 314 nm (in CCOC(C)=O); 318 nm (in CO); 316 nm (in CS(C)=O). The absorption maximum was determined as 312 nm (in Cc1ccccc1) and 318 nm (in ClCCl).
Take `COc1ccc(C2=C(c3ccc(OC)cc3)C(C)(C)c3cc(-c4ccccc4)ccc32)cc1`: the absorption maximum (in C1CCCCC1) is 305 nm.
`Oc1cccc(O)c1-c1c2ccc(=[N+]3CCCCC3)cc-2oc2cc(N3CCCCC3)ccc12` displayed an absorption maximum (in CCO) of 557 nm.
On to `CCNc1cc2oc(=O)cc(C(F)(F)F)c2cc1C`, for which, under “in CC#N”, the absorption maximum is 383 nm.
Take `O=CN1N=C(c2ccc(Br)cc2)C[C@@H]1c1ccccc1`: the absorption maximum is, setting by setting: (in C1CCCCC1) 305 nm; (in C1COCCO1) 303 nm; (in CC#N) 298 nm; (in CCO) 297 nm; (in CCOC(C)=O) 301 nm; (in CO) 298 nm. Moreover, the absorption maximum was determined as 302 nm (in CS(C)=O), 306 nm (in Cc1ccccc1) and 306 nm (in ClC(Cl)(Cl)Cl).
As to `COc1ccc2cc(-c3ccc(C(F)(F)F)cc3)oc(=O)c2c1`, the absorption maximum is recorded as 326 nm (in CCCCCC); 327 nm (in CCCCCCCCO); 326 nm (in CCCCO); 325 nm (in CCCO); 324 nm (in CCO); 326 nm (in CCOC(C)=O). Besides, the absorption maximum reads like this: (in CN(C)C=O) 328 nm; (in CO) 324 nm; (in ClC(Cl)Cl) 327 nm.
Turning to `CCCCCCNC(=O)c1sc(-c2ccc(-c3cc(-c4ccc(C(C)(C)C)cc4)c(C(=O)NCCCCCC)s3)s2)cc1-c1ccc(C(C)(C)C)cc1`, under “in ClCCl”, the absorption maximum stood at 392 nm.
In turn, `CN(C)c1ccc2nc(-c3ccccc3)sc2c1` had an absorption maximum (in C1CCCCC1) of 357 nm; an absorption maximum (in CC#N) of 362 nm; an absorption maximum (in CC(C)O) of 361 nm; an absorption maximum (in CO) of 363 nm; an absorption maximum (in CS(C)=O) of 369 nm; an absorption maximum (in ClC(Cl)Cl) of 362 nm. Further, the absorption maximum (in c1ccccc1) turned out to be 364 nm.
`N#Cc1cc(N2c3ccccc3Oc3ccccc32)c(N2c3ccccc3Oc3ccccc32)cc1C#N` gave an absorption maximum (in c1ccc2c(c1)c1ccccc1n2-c1ccc(-c2ccc(-n3c4ccccc4c4ccccc43)cc2)cc1) of 540 nm.
On to `O=C1c2ccc3c4ccc5c6c(ccc(c7ccc(c2c37)C(=O)N1c1ccncc1)c64)C(=O)N(c1ccncc1)C5=O`, for which the absorption maximum runs as follows: (in C1CCOC1) 522 nm; (in C1COCCO1) 525 nm; (in CC(C)=O) 519 nm; (in CC(C)O) 525 nm; (in CCCCO) 525 nm; (in CCO) 524 nm. In addition, the absorption maximum is given as 519 nm (in CCOC(C)=O); 524 nm (in CN(C)C=O); 525 nm (in CO); 528 nm (in CS(C)=O); 524 nm (in ClC(Cl)(Cl)Cl); 530 nm (in ClC(Cl)Cl).
Consider `CCCCCCC(CCCCCC)N1C(=O)c2cccc3c(-c4cc(OC)c(OC)c(OC)c4)ccc(c23)C1=O`, for which the absorption maximum reads like this: (in CCCCCC) 354.8 nm; (in CCCCCCCCCCCCCC) 357 nm; (in CCCCCCCCCCCO) 362.6 nm; (in CCCCO) 361.4 nm; (in CN(C)C=O) 365.6 nm; (in Cc1ccccc1) 360.8 nm. In addition, under “in ClC(Cl)Cl”, the absorption maximum amounted to 362.2 nm.
For the compound `CN(C)c1ccc(/C=C/c2cc[n+](C)cc2)cc1`, the absorption maximum is, setting by setting: (in C1CCOC1) 483 nm; (in CC1COC(=O)O1) 473 nm; (in CC#N) 470 nm; (in CC(C)=O) 474 nm and 468 nm; (in CC(C)O) 477 nm; (in CCO) 480 nm. The absorption maximum is, setting by setting: (in CCOC(C)=O) 464 nm; (in CO) 476 nm and 474 nm; (in CS(C)=O) 471 nm; (in ClC(Cl)Cl) 500 nm; (in ClCCl) 522 nm; (in O) 448 nm. Where the note is “in c1ccncc1”, this compound had an absorption maximum of 494 nm.
For the compound `F[B-]1(F)OC(c2ccccc2)=Cc2cc(Cl)nc[n+]21`, the absorption maximum was 374 nm (in C1CCOC1); 371 nm (in CC#N); 373 nm (in CCCCCC); 377 nm (in Cc1ccccc1); 376 nm (in ClC(Cl)Cl); 375 nm (in ClCCl).
Turning to `CCOC(=O)c1ccccc1-c1c2ccc(=[N+](CC)CC)cc-2oc2cc(N(CC)CC)ccc12`, the absorption maximum by setting is: (in CC#N) 555 nm; (in CCO) 541 nm; (in CN(C)C=O) 560 nm; (in O) 552 nm.
In the case of `Cc1ccccc1-c1ccccc1C`, the absorption maximum (in C1CCCCC1) is 260.08 nm.

(Values after the Deep4Chem optical property database.)
